Data taken from PMC11501026, “L-Arginine and asymmetric dimethylarginine (ADMA) transport across the mouse blood-brain and blood-CSF barriers: Evidence of saturable transport at both interfaces and CNS to blood efflux” (PLOS ONE, 2024).
“And” between values parts separate entries of the source, which are not always exact repeats. Equal entries are not always repeated. Where two headings read alike, the source gives them in different places.

How the values were obtained:
Type in all cases: in vivo, mouse
[1] = capillary depletion analysis after in situ brain perfusion; set-up: [3H] ADMA and [14C] Sucrose uptake, homogenate / Difference (ADMA minus Sucrose), homogenate / [3H] ADMA and [14C] Sucrose uptake, supernatant / Difference (ADMA minus Sucrose), supernatant / uptake, homogenate / uptake, supernatant: unit not given here; details: for Kp at 30 min: other: in situ brain perfusion with artificial plasma
Method: The microvasculature within a sample of brain tissue can be separated from the brain parenchyma using capillary depletion analysis. Following perfusion, the remaining brain tissue after microdissection of the regions described above (typically 200–300 mg) underwent capillary depletion following a method modified for mouse. […]

[2] = test system: [^3H]-arginine transport across the blood-brain and blood-CSF barriers; assay: self-inhibition, in situ perfusion: [^3H]-arginine with 100 μM unlabelled L-arginine; details: +100uM Un-labelled arginine, 10 mins, Balb/c ♂, 5ml/min; single mouse
Method: (§1) Self-inhibition experiments were also performed. […] Cross-competition experiments were also performed.
(§2) The percentage change in the RTissue uptake values achieved in the absence or presence of an unlabelled inhibitor can be calculated by means of Eq 4.
(§3) %change=RTissue−RInhibition/RTissue×100 Eq 4
(§4) We define RInhibition as the RTissue uptake in the presence of an inhibitor in the artificial plasma.
(§5) A decrease in the uptake of radiolabelled solute in the presence of unlabelled inhibitor is indicative of a saturable influx transport system. Conversely, an increase in the uptake of radiolabelled solute in the presence of unlabelled inhibitor is indicative of a saturable efflux transport system.

[3] = as above; details: male, Balb/c, mouse, other: in situ brain perfusion, with 100 µM unlabelled L-arginine, +100uM Un-labelled arginine, 10 mins, Balb/c ♂, 5ml/min
Method: as §1, §2, §3, §4, §5

[4] = cross-inhibition, in situ perfusion: [^3H]-arginine with 0.5–500 μM unlabelled ADMA; details: male, mouse, 10 mins, Balb/c ♂, 5ml/min
Method: as §1, §2, §3, §4, §5
Concentrations of ADMA were specifically selected to mimic plasma concentrations under normal conditions (0.5 μM), pathophysiological conditions (3.0 μM), and then supraphysiological concentrations (10, 100 and 500 μM).

OC[C@H]1O[C@@](CO)(O[C@H]2O[C@H](CO)[C@@H](O)[C@H](O)[C@H]2O)[C@@H](O)[C@@H]1O [[^14C]-sucrose, reference compound]
[3H] ADMA and [14C] Sucrose uptake, supernatant ([1]; 2.5 mins, Balb/c ♂, 5ml/min, individual mouse): 0.005063
uptake, pellet ([1]; [3H] ADMA + [14C] Sucrose, 30 mins, Balb/c ♂, 5ml/min, individual mice): 0.004118 and 0.004644 and 0.005073
Kp at 20 min, 62.5 nM ([1]; male, BALB/c, mouse, capillary depletion pellet (endothelial cell-enriched), [3H] ADMA and [14C] Sucrose uptake, pellet, 20 mins, 5ml/min, mean): 0.00274
Kp at 30 min ([1]; male, BALB/c, mouse, capillary depletion pellet (endothelial cell-enriched), pellet: [14C] Sucrose, 30 mins, Balb/c ♂, 5ml/min, single mouse): 0.00943
Kp at […] ([1]; male, BALB/c, mouse, capillary depletion supernatant (brain parenchyma), [3H] ADMA and [14C] Sucrose uptake, supernatant, 2.5 mins, 5ml/min, mean): 0.0098
Kp at […] ([1]; male, BALB/c, mouse, endothelial cell-enriched pellet (capillary depletion), [3H] ADMA and [14C] Sucrose uptake, pellet, 2.5 mins, 5ml/min, mean): 0.00237
Kp at 30 min, 62.5 nM ([1]; male, BALB/c, mouse, endothelial cell-enriched pellet (capillary depletion), other: in situ brain perfusion, [3H] ADMA + [14C] Sucrose, 30 mins, Balb/c ♂, 5ml/min, individual mice, read-out: uptake, pellet): 0.00308
Kp at 30 min, 62.5 nM ([1]; male, BALB/c, mouse, endothelial cell-enriched pellet (capillary depletion), other: in situ brain perfusion, [3H] ADMA + [14C] Sucrose, 30 mins, Balb/c ♂, 5ml/min, mean, read-out: uptake, pellet): 0.00455
Kp at […] ([1]; male, BALB/c, mouse, endothelial cell-enriched pellet (capillary depletion), pellet, 2.5 mins, uncorrected, given as fraction, read-out: tissue or CSF to plasma ratio (mean)): 0.00218
Kp at 10 min ([1]; male, BALB/c, mouse, endothelial cell-enriched pellet (capillary depletion), pellet, 10 mins, uncorrected, given as fraction, read-out: tissue or CSF to plasma ratio (mean)): 0.00461
Kp at 30 min ([1]; male, BALB/c, mouse, whole-brain homogenate (capillary depletion), homogenate: [14C] Sucrose, 30 mins, Balb/c ♂, 5ml/min, mean): 0.0653
Kp at 30 min, 62.5 nM ([1]; male, BALB/c, mouse, whole-brain homogenate (capillary depletion), other: in situ brain perfusion, [3H] ADMA + [14C] Sucrose, 30 mins, Balb/c ♂, 5ml/min, mean, read-out: uptake, homogenate): 0.0336
Kp at 10 min, 62.5 nM ([1]; male, BALB/c, mouse, whole-brain homogenate (capillary depletion), other: in situ brain perfusion, [3H] ADMA and [14C] Sucrose uptake, homogenate, CONTROL, 10 mins, Balb/c ♂, 5ml/min, mean): 0.0971
Kp at 10 min ([1]; male, Balb/c, mouse, endothelial cell-enriched pellet after capillary depletion, other: in situ brain perfusion, with unlabelled ADMA 3 µM, Arginine / Sucrose uptake, pellet, mean, [3H] Arginine + [14C] Sucrose + 3 uM ADMA, 10 mins, Balb/c ♂, 5ml/min, mean): 0.00326
Kp at 10 min ([1]; male, Balb/c, mouse, endothelial cell-enriched pellet after capillary depletion, other: in situ brain perfusion, with unlabelled ADMA 10 µM, Arginine / Sucrose uptake, pellet, mean, [3H] Arginine + [14C] Sucrose + 10 uM ADMA, 10 mins, Balb/c ♂, 5ml/min, mean): 0.00425
Kp at 10 min ([1]; male, Balb/c, mouse, endothelial cell-enriched pellet, other: in situ brain perfusion, with unlabelled ADMA 100 µM, Arginine / Sucrose uptake, pellet, mean, [3H] Arginine + [14C] Sucrose + 100µM un-labelled ADMA, 10 mins, Balb/c ♂, 5ml/min, mean): 0.00383
Kp at 10 min ([1]; male, Balb/c, mouse, supernatant (brain parenchyma) after capillary depletion, other: in situ brain perfusion, with unlabelled ADMA 3 µM, Arginine / Sucrose uptake, supernatant, mean, [3H] Arginine + [14C] Sucrose + 3 uM ADMA, 10 mins, Balb/c ♂, 5ml/min, mean): 0.0159
Kp at 10 min ([1]; male, Balb/c, mouse, supernatant (brain parenchyma), other: in situ brain perfusion, with unlabelled ADMA 100 µM, Arginine / Sucrose uptake, supernatant, [3H] Arginine + [14C] Sucrose + 100µM un-labelled ADMA, 10 mins, Balb/c ♂, 5ml/min, single mice): 0.0158
pellet: [14C] Sucrose [2]: 0.001001 and 0.002262 and 0.003661 and 0.002471 and 0.002325
Kp at 10 min ([3]; pellet, pellet: [14C] Sucrose, mean): 0.00699
Kp at 10 min ([3]; pituitary gland, pituitary gland: [14C] Sucrose, mean): 0.151
Kp at 10 min ([3]; pons, pons: [14C] Sucrose, mean): 0.0326
Kp at 10 min ([3]; supernatant, supernatant: [14C] Sucrose, single mouse): 0.0159
Kp at 10 min ([4]; BALB/c, other: in situ brain perfusion with artificial plasma, with unlabelled ADMA 500 µM, [3H] Arginine and [14C] Sucrose uptake, pellet, + 500µM un-labelled ADMA, mean): 0.00271
Kp at 10 min ([4]; BALB/c, thalamus, other: in situ brain perfusion with artificial plasma, with unlabelled ADMA 500 µM, [3H] Arginine and [14C] Sucrose uptake, thalamus, + 500µM un-labelled ADMA, mean): 0.034
Kp at 10 min ([4]; Balb/c, CSF, other: in situ brain perfusion, with unlabelled ADMA 100 µM, Arginine / Sucrose uptake, CSF, mean, [3H] Arginine + [14C] Sucrose + 100µM un-labelled ADMA, mean): 0.149
Kp at 10 min ([4]; Balb/c, caudate nucleus, other: in situ brain perfusion, with unlabelled ADMA 10 µM, Arginine / Sucrose uptake, caudate nucleus, mean, [3H] Arginine + [14C] Sucrose + 10 uM ADMA, mean): 0.0357
Kp at 10 min ([4]; Balb/c, cerebellum, other: in situ brain perfusion, with unlabelled ADMA 0.5 µM, cerebellum: [14C] Sucrose, + 0.5 uM ADMA, mean): 0.0327
Kp at 10 min ([4]; Balb/c, choroid plexus, other: in situ brain perfusion, with 0.5 µM unlabelled ADMA, choroid plexus: [14C] Sucrose, + 0.5 uM ADMA, mean): 0.162
Kp at 10 min ([4]; Balb/c, frontal cortex, other: in situ brain perfusion, with unlabelled ADMA 3 µM, Arginine / Sucrose uptake, frontal cortex, [3H] Arginine + [14C] Sucrose + 3 uM ADMA, single mice): 0.0326
Kp at 10 min ([4]; Balb/c, hypothalamus, other: in situ brain perfusion, with unlabelled ADMA 3 µM, Arginine / Sucrose uptake, hypothalamus, mean, [3H] Arginine + [14C] Sucrose + 3 uM ADMA, mean): 0.0456
Kp at 10 min ([4]; Balb/c, hypothalamus, other: in situ brain perfusion, with unlabelled ADMA 10 µM, Arginine / Sucrose uptake, hypothalamus, mean, [3H] Arginine + [14C] Sucrose + 10 uM ADMA, mean): 0.074
Kp at 10 min ([4]; Balb/c, hypothalamus, other: in situ brain perfusion, with unlabelled ADMA 100 µM, Arginine / Sucrose uptake, hypothalamus, mean, [3H] Arginine + [14C] Sucrose + 100µM un-labelled ADMA, mean): 0.0349
Kp at 10 min ([4]; Balb/c, pellet (cerebral capillary endothelial cells), other: in situ brain perfusion, with unlabelled ADMA 0.5 µM, pellet: [14C] Sucrose, + 0.5 uM ADMA, mean): 0.00977
Kp at 10 min ([4]; Balb/c, pineal gland, other: in situ brain perfusion, with unlabelled ADMA 10 µM, Arginine / Sucrose uptake, pineal gland, mean, [3H] Arginine + [14C] Sucrose + 10 uM ADMA, mean): 0.504
Kp at 10 min ([4]; Balb/c, pituitary gland, other: in situ brain perfusion, with 0.5 µM unlabelled ADMA, pituitary gland: [14C] Sucrose, + 0.5 uM ADMA, mean): 0.13
Kp at 10 min ([4]; Balb/c, pituitary gland, other: in situ brain perfusion, with unlabelled ADMA 3 µM, Arginine / Sucrose uptake, pituitary gland, mean, [3H] Arginine + [14C] Sucrose + 3 uM ADMA, mean): 0.146
Kp at 10 min ([4]; Balb/c, pons, other: in situ brain perfusion, with unlabelled ADMA 0.5 µM, pons: [14C] Sucrose, + 0.5 uM ADMA, mean): 0.0597
Kp at 10 min ([4]; Balb/c, pons, other: in situ brain perfusion, with unlabelled ADMA 3 µM, Arginine / Sucrose uptake, pons, mean, [3H] Arginine + [14C] Sucrose + 3 uM ADMA, mean): 0.0612
Kp at 10 min ([4]; Balb/c, pons, other: in situ brain perfusion, with unlabelled ADMA 10 µM, Arginine / Sucrose uptake, pons, mean, [3H] Arginine + [14C] Sucrose + 10 uM ADMA, mean): 0.0764
Kp at 10 min ([4]; Balb/c, thalamus, other: in situ brain perfusion, with unlabelled ADMA 10 µM, Arginine / Sucrose uptake, thalamus, mean, [3H] Arginine + [14C] Sucrose + 10 uM ADMA, mean): 0.0352
